# Bridge positions count the residues as written; N and C are the ends. Peptide text beside a SMILES is read from it.
# Experiments:
# [1] = test system: HepG2-2.2.15 cells; experiment: Cell viability (dye uptake) in the HBV assay; format: cell-based; details: peptide 10 micrograms per ml, % cell control
# [2] = test system: MRC-5 cells; details: human, 6 days
# [3] = Cell viability (dye uptake) in the HBV assay; format: cell-based; details: human, HepG2-2.2.15 cells (stable line containing HBV ayw genome), peptide 10 micrograms per ml, % cell control
# [4] = test system: Primary Human endothelial cells (HUVEC); experiment: Endothelial cell migration assay; format: cell-based; details: peptide 10 micrograms per ml, 22 hours
# [5] = test system: Human Peripheral Blood Mononuclear Cells (PBMC), B cell proliferation; experiment: B cell proliferation assay (SAC plus IL-2 stimulated PBMC, 3H-thymidine); format: cell-based; details: peptide 10 micrograms per ml, 3 days plus 12 hours 3H-thymidine
# [6] = test system: spleen cells of Ovalbumin-immunized Balb/c mice; experiment: Th1/Th2 cytokine profiling assay (Ovalbumin-restimulated spleen cells, CBA kit); format: cell-based, mouse; details: peptide 10 micrograms per ml; Ovalbumin 10 micrograms/ml restimulation; 72 hours
# Excerpt: The Balb/c mice (originated in 1923, it is a popular strain and is used in many different research disciplines. Also classified as an inbred from the production of 20 or more successive brother-sister matings, the Balb/c mouse is albino and small in size) were immunized on Days 1, 15, and 29 with Ovalbumin (Ovalbumin is the main protein found in egg white, commonly used to stimulate an immunological reaction in test animals) in PBS (5 micrograms/injection). On day 50, spleens of the mice were harvested (3 weeks after last boost with Ovalbumin). […] Thereafter, additional Ovalbumin was added to the cells at 10 micrograms/ml for in vitro restimulation of the cells. 72 hours later, cell supernatants were harvested and assayed using the Becton Dickinson Mouse Th1/Th2 Cytokine CBA Kit. This kit can be used to measure Interleukin-2 (IL-2), Interleukin-4 (IL-4), Interleukin-5 (IL-5), Interferon-γ (IFN-γ), and Tumor Necrosis Factor-α (TNF-α) protein levels in a single sample.
# [7] = test system: HUVEC; experiment: Endothelial tube formation assay; format: cell-based, human; details: peptide 10 micrograms per ml, 20 hours
# Excerpt: Positive control was vehicle only.
# [8] = test system: RAW 264.7 cells; experiment: Phagocytosis assay (Fluorescein-labeled Escherichia coli, flow cytometry); format: cell-based, mouse; details: peptide 10 micrograms per ml, 30 min preincubation, 60 min ingestion
# [9] = test system: HCMV strain AD169; experiment: HCMV plaque reduction assay in MRC-5 cells; format: cell-based, human cytomegalovirus; details: HCMV AD169 in MRC-5 cells; peptide 10 micrograms per ml; 7-10 days
# Excerpt: Ganciclovir was used as positive control.
# [10] = test system: TNF alpha production in PBMC-derived macrophages; experiment: TNF alpha production assay (LPS-stimulated macrophages, ELISA); format: cell-based, human; details: peptide 10 micrograms per ml, lipopolysaccharide 200 ng/ml, overnight
# Excerpt: Not stimulated macrophages served as negative background control.
# [11] = Cytotoxicity testing in MRC-5 cells (CellTiter 96); details: human, MRC-5 cells (embryonal lung fibroblasts)
# [12] = test system: A549 cells; experiment: Propidium iodide cell cycle assay; format: cell-based, human; details: peptide 10 micrograms per ml, 24 hours, FACS
# [13] = human, cells plus peptide only
# [14] = test system: hepatitis B virus (HBV) ayw strain; experiment: HBV replication assay in HepG2-2.2.15 cells (secreted HBV DNA, TaqMan PCR); format: cell-based; details: peptide 10 micrograms per ml; six days; HBV DNA in supernatant, % virus control
# [15] = test system: Human Peripheral Blood Mononuclear Cells (PBMC), T cell proliferation; experiment: T cell proliferation assay (PHA-stimulated PBMC, 3H-thymidine); format: cell-based; details: peptide 10 micrograms per ml, 3 days plus 12 hours 3H-thymidine
smiles,measurement,setting,value
"Nc1ccn([C@@H]2CS[C@H](CO)O2)c(=O)n1 [Compound 3TC, Lamivudine, reference compound]",% Cell viability,[1],95.8%
Nc1nc(O)c2ncn(COC(CO)CO)c2n1 [Ganciclovir],% Cell viability,[2],100%
"CC[C@H](C)[C@@H]1NC(=O)CNC(=O)[C@H](CCCNC(=N)N)NC(=O)CNC(=O)[C@@H]2CSSC[C@H](NC1=O)C(=O)N[C@@H](CCCNC(=N)N)C(=O)N[C@H]1CSSC[C@H](NC(=O)[C@H](CCCNC(=N)N)NC(=O)[C@@H]3CSSC[C@H](NC(=O)[C@H]([C@@H](C)CC)NC1=O)C(=O)NCC(=O)N[C@@H](CCCNC(=N)N)C(=O)NCC(=O)N[C@@H]([C@@H](C)CC)C(=O)N3)C(=O)N[C@@H]([C@@H](C)CC)C(=O)N2 [Retrocyclin-1] (cyclo(GICRCICGRGICRCICGR); disulfide 3-16, 5-14, 7-12 (inferred); ring closure inferred)","viability at 144 h, 10 micrograms per ml",[3],78.5%
same,% inhibition of migration,[4],8%
same,% of SAC/IL2 induced control,[5],85.0%
same,IFNγ spleen cells; TH1 response (% of control),[6],137.6 % of control
same,IL-2 spleen cells (% of control),[6],157.7 % of control
same,IL-4 spleen cells; TH2 response (% of control),[6],67.1 % of control
same,IL-5 spleen cells; TH2 response (% of control),[6],80.7 % of control
same,TNF-a spleen cells; TH1 response (% of control),[6],152.5 % of control
same,% inhibition of tube formation,[7],100%
same,% of control phagocytosis,[8],79.4%
same,% plaque reduction,[9],25.8%
same,% of LPS induction,[10],115.1%
same,viability at 144 h,[11],100%
same,Cell cycle analysis G0/G1,[12],55.3
same,Cell cycle analysis G2/M,[12],12.1
same,Cell cycle analysis S,[12],32.6
same,viability at 10 micrograms per ml,[13],89.3%
same,% inhibition of HBV replication in HEP G2 cells,[14],72.2%
same,% of PHA induced control,[15],81.6%

# From US20100204090A1, “USE OF A PEPTIDE AS A THERAPEUTIC AGENT” (priority 2007, published 2010)
